Measurements taken from the NIST ThermoML archive (doi:10.1021/je049612f).
Numbers after ± are expanded uncertainties.

Conditions: Gas, Vibrating wire viscometry

FS(F)(F)(F)(F)F [sulfur hexafluoride]
Conditions | viscosity [mPa·s]
321 K, 1893.8 kPa | 0.01729 ± 0.00091
321 K, 1930.7 kPa | 0.01734 ± 0.00091
321 K, 2004.9 kPa | 0.01743 ± 0.00091
321 K, 2041.9 kPa | 0.01747 ± 0.00091
321 K, 2120.4 kPa | 0.01758 ± 0.00091
321 K, 2221.3 kPa | 0.01772 ± 0.00091
321 K, 2270.3 kPa | 0.0178 ± 0.00091
321 K, 2332.7 kPa | 0.0179 ± 0.00091
321 K, 2373.2 kPa | 0.01797 ± 0.00091
321 K, 2451.3 kPa | 0.01812 ± 0.00092
321 K, 2534.7 kPa | 0.01826 ± 0.00092
321 K, 2581.9 kPa | 0.01837 ± 0.00092
321 K, 2629.5 kPa | 0.01846 ± 0.00092
321 K, 2688.1 kPa | 0.0186 ± 0.00092
321 K, 2803.9 kPa | 0.01888 ± 0.00092
321 K, 2873.5 kPa | 0.01908 ± 0.00092
321 K, 2959.1 kPa | 0.01932 ± 0.00092
321 K, 3050 kPa | 0.01963 ± 0.00093
321 K, 3136.6 kPa | 0.01995 ± 0.00093
321 K, 3229.6 kPa | 0.02035 ± 0.00093
321 K, 3282 kPa | 0.0206 ± 0.00093
321 K, 3384.4 kPa | 0.02117 ± 0.00094
321 K, 3445.9 kPa | 0.02156 ± 0.00094
321 K, 3498.8 kPa | 0.02195 ± 0.00094
321 K, 3558.3 kPa | 0.02244 ± 0.00095
321 K, 3606.1 kPa | 0.02294 ± 0.00095
321 K, 3651.4 kPa | 0.02346 ± 0.00096
321 K, 3695.6 kPa | 0.02407 ± 0.00096
321 K, 3729.2 kPa | 0.02462 ± 0.00097
321 K, 3765.4 kPa | 0.0253 ± 0.00097
321 K, 3793.6 kPa | 0.026 ± 0.00098
321 K, 3819.6 kPa | 0.02674 ± 0.00099
321 K, 3858.5 kPa | 0.02827 ± 0.001
321 K, 3887.8 kPa | 0.0299 ± 0.0011
321 K, 3899.4 kPa | 0.03104 ± 0.0011
321 K, 3910.1 kPa | 0.03218 ± 0.0012
321 K, 3918.4 kPa | 0.03355 ± 0.0012
321 K, 3926.6 kPa | 0.03481 ± 0.0012
321 K, 3933.3 kPa | 0.03615 ± 0.0012
321 K, 3938.4 kPa | 0.03743 ± 0.0012
321 K, 3945.7 kPa | 0.03995 ± 0.0013
321 K, 3950.6 kPa | 0.04131 ± 0.0013
321 K, 3955.4 kPa | 0.04272 ± 0.0013
321 K, 3961 kPa | 0.04435 ± 0.0014
321 K, 3968.8 kPa | 0.04638 ± 0.0013
321 K, 3977 kPa | 0.04813 ± 0.0014
321 K, 3988.3 kPa | 0.05018 ± 0.0014
321 K, 4001.1 kPa | 0.05214 ± 0.0013
321 K, 4020.8 kPa | 0.05448 ± 0.0013
321 K, 4046.8 kPa | 0.05683 ± 0.0013
321 K, 4077.1 kPa | 0.05902 ± 0.0013
321 K, 4112.9 kPa | 0.06125 ± 0.0013
321 K, 4160 kPa | 0.0635 ± 0.0013
321 K, 4223.8 kPa | 0.06599 ± 0.0013
321 K, 4349.4 kPa | 0.07 ± 0.0013
321 K, 4465.5 kPa | 0.07305 ± 0.0014
321 K, 4601.3 kPa | 0.07606 ± 0.0014
321 K, 4740.5 kPa | 0.07859 ± 0.0014
321 K, 4879.1 kPa | 0.08093 ± 0.0014
321 K, 5134 kPa | 0.08474 ± 0.0015
321 K, 5554.1 kPa | 0.09001 ± 0.0015
321 K, 5938 kPa | 0.09416 ± 0.0016
321 K, 6388.7 kPa | 0.09845 ± 0.0016
321 K, 7256.2 kPa | 0.1057 ± 0.0017
321 K, 7905.1 kPa | 0.1105 ± 0.0017
321 K, 8647.5 kPa | 0.1154 ± 0.0018
321 K, 9548.1 kPa | 0.1212 ± 0.0018
321 K, 10352 kPa | 0.1258 ± 0.0019
321 K, 11075 kPa | 0.1297 ± 0.0019
333.15 K, 91.55 kPa | 0.01681 ± 0.0009
333.15 K, 113.58 kPa | 0.01682 ± 0.0009
333.15 K, 142.52 kPa | 0.01682 ± 0.0009
333.15 K, 172.42 kPa | 0.01683 ± 0.0009
333.15 K, 198.48 kPa | 0.01684 ± 0.0009
333.15 K, 218.78 kPa | 0.01685 ± 0.0009
333.15 K, 243.22 kPa | 0.01685 ± 0.0009
333.15 K, 275.2 kPa | 0.01686 ± 0.0009
333.15 K, 294.03 kPa | 0.01686 ± 0.0009
333.15 K, 319.41 kPa | 0.01687 ± 0.0009
333.15 K, 350.89 kPa | 0.01688 ± 0.0009
333.15 K, 378.94 kPa | 0.01689 ± 0.0009
333.15 K, 416.93 kPa | 0.0169 ± 0.00091
333.15 K, 443.4 kPa | 0.01691 ± 0.00091
333.15 K, 479.64 kPa | 0.01692 ± 0.00091
333.15 K, 506.6 kPa | 0.01693 ± 0.00091
333.15 K, 547.64 kPa | 0.01694 ± 0.00091
333.15 K, 590.65 kPa | 0.01695 ± 0.00091
333.15 K, 636.15 kPa | 0.01697 ± 0.00091
333.15 K, 671.18 kPa | 0.01698 ± 0.00091
333.15 K, 717.74 kPa | 0.017 ± 0.00091
333.15 K, 772.31 kPa | 0.01703 ± 0.00091
333.15 K, 837.79 kPa | 0.01705 ± 0.00091
333.15 K, 887.92 kPa | 0.01708 ± 0.00091
333.15 K, 946.43 kPa | 0.0171 ± 0.00091
333.15 K, 1025.7 kPa | 0.01715 ± 0.00091
333.15 K, 1092.5 kPa | 0.01718 ± 0.00091
333.15 K, 1167.4 kPa | 0.01723 ± 0.00091
333.15 K, 1233.2 kPa | 0.01727 ± 0.00091
333.15 K, 1307.8 kPa | 0.01732 ± 0.00091
333.15 K, 1366.9 kPa | 0.01737 ± 0.00091
333.15 K, 1419.7 kPa | 0.0174 ± 0.00091
333.15 K, 1502.8 kPa | 0.01746 ± 0.00091
333.15 K, 1566.4 kPa | 0.01751 ± 0.00091
333.15 K, 1629.7 kPa | 0.01757 ± 0.00091
333.15 K, 1705.8 kPa | 0.01763 ± 0.00091
333.15 K, 1772.9 kPa | 0.01769 ± 0.00091
333.15 K, 1853.5 kPa | 0.01778 ± 0.00091
333.15 K, 1917.4 kPa | 0.01783 ± 0.00091
333.15 K, 1967 kPa | 0.0179 ± 0.00091
333.15 K, 2025.7 kPa | 0.01795 ± 0.00091
333.15 K, 2294.7 kPa | 0.01828 ± 0.00092
333.15 K, 2427.7 kPa | 0.01848 ± 0.00092
333.15 K, 2519.2 kPa | 0.01862 ± 0.00092
333.15 K, 2631.9 kPa | 0.0188 ± 0.00092
333.15 K, 2766.3 kPa | 0.01904 ± 0.00092
333.15 K, 2872 kPa | 0.01925 ± 0.00092
333.15 K, 3008.3 kPa | 0.01955 ± 0.00093
333.15 K, 3089.4 kPa | 0.01973 ± 0.00093
333.15 K, 3195.2 kPa | 0.02001 ± 0.00093
333.15 K, 3306.1 kPa | 0.02032 ± 0.00093
333.15 K, 3398.7 kPa | 0.0206 ± 0.00093
333.15 K, 3504 kPa | 0.02097 ± 0.00094
333.15 K, 3605.1 kPa | 0.02135 ± 0.00094
333.15 K, 3722 kPa | 0.02185 ± 0.00094
333.15 K, 3815.4 kPa | 0.02229 ± 0.00095
333.15 K, 3932.1 kPa | 0.02291 ± 0.00095
333.15 K, 4050.8 kPa | 0.0237 ± 0.00096
333.15 K, 4148.2 kPa | 0.02445 ± 0.00097
333.15 K, 4239.9 kPa | 0.02524 ± 0.00099
333.15 K, 4328.2 kPa | 0.02616 ± 0.00098
333.15 K, 4406.9 kPa | 0.02715 ± 0.00099
333.15 K, 4479.7 kPa | 0.02819 ± 0.001
333.15 K, 4549.6 kPa | 0.02938 ± 0.0012
333.15 K, 4612.3 kPa | 0.03054 ± 0.001
333.15 K, 4671.8 kPa | 0.03186 ± 0.0013
333.15 K, 4725.8 kPa | 0.03331 ± 0.0011
333.15 K, 4776.6 kPa | 0.03476 ± 0.0012
333.15 K, 4828.1 kPa | 0.03629 ± 0.0013
333.15 K, 4880.1 kPa | 0.03801 ± 0.0011
333.15 K, 4933.2 kPa | 0.03982 ± 0.0011
333.15 K, 4991.6 kPa | 0.0419 ± 0.0012
333.15 K, 5049 kPa | 0.04395 ± 0.0013
333.15 K, 5109.4 kPa | 0.04603 ± 0.0012
333.15 K, 5178.8 kPa | 0.04833 ± 0.0012
333.15 K, 5254.9 kPa | 0.05072 ± 0.0012
333.15 K, 5343.6 kPa | 0.05331 ± 0.0012
333.15 K, 5447.5 kPa | 0.0561 ± 0.0012
333.15 K, 5567.4 kPa | 0.05883 ± 0.0012
333.15 K, 5709.9 kPa | 0.06196 ± 0.0013
333.15 K, 5869.5 kPa | 0.06483 ± 0.0013
333.15 K, 6098.2 kPa | 0.0687 ± 0.0013
333.15 K, 6338.2 kPa | 0.07217 ± 0.0014
333.15 K, 6627.7 kPa | 0.07584 ± 0.0014
333.15 K, 6950.6 kPa | 0.07952 ± 0.0014
333.15 K, 7378.3 kPa | 0.08395 ± 0.0015
333.15 K, 7900 kPa | 0.08869 ± 0.0015
333.15 K, 8519.8 kPa | 0.09355 ± 0.0016
333.15 K, 9106.8 kPa | 0.09795 ± 0.0016
333.15 K, 9802 kPa | 0.1027 ± 0.0016
333.15 K, 10465 kPa | 0.1067 ± 0.0017
333.15 K, 11412 kPa | 0.1122 ± 0.0018
333.15 K, 12565 kPa | 0.1183 ± 0.0018
350 K, 64.67 kPa | 0.01753 ± 0.00091
350 K, 96.54 kPa | 0.01755 ± 0.00091
350 K, 117.61 kPa | 0.01755 ± 0.00091
350 K, 143.77 kPa | 0.01756 ± 0.00091
350 K, 170.68 kPa | 0.01756 ± 0.00091
350 K, 204.56 kPa | 0.01758 ± 0.00091
350 K, 238.01 kPa | 0.01759 ± 0.00091
